{"source": "ChEMBL document CHEMBL1141332", "about": "“Cytotoxic metabolites from an Indonesian sponge Lendenfeldia sp” (J Nat Prod, 2007)", "format_in_all_cases": "functional", "key": {"[1]": {"system": "U-251", "experiment": "Cytotoxicity against human U251cells", "conditions": "read-out: Log TGI (converted)"}, "[2]": {"system": "Malme-3M", "experiment": "Cytotoxicity against human MALME-3M cells"}, "[3]": {"system": "M14", "experiment": "Cytotoxicity against human M14 cells"}, "[4]": {"system": "SK-MEL-2", "experiment": "Cytotoxicity against human SK-MEL-2 cells"}, "[5]": {"system": "SK-MEL-28", "experiment": "Cytotoxicity against human SK-MEL-28 cells"}, "[6]": {"system": "UACC-257", "experiment": "Cytotoxicity against human UACC257 cells"}, "[7]": {"system": "UACC-62", "experiment": "Cytotoxicity against human UACC62 cells"}, "[8]": {"system": "IGROV-1", "experiment": "Cytotoxicity against human IGROV1 cells"}, "[9]": {"system": "OVCAR-3", "experiment": "Cytotoxicity against human OVCAR-3 cells"}, "[10]": {"system": "OVCAR-4", "experiment": "Cytotoxicity against human OVCAR4 cells"}, "[11]": {"system": "OVCAR-5", "experiment": "Cytotoxicity against human OVCAR5 cells"}, "[12]": {"system": "OVCAR-8", "experiment": "Cytotoxicity against human OVCAR8 cells"}, "[13]": {"system": "786-0", "experiment": "Cytotoxicity against human 786-0 cells"}, "[14]": {"system": "ACHN", "experiment": "Cytotoxicity against human ACHN cells"}, "[15]": {"system": "RXF 393", "experiment": "Cytotoxicity against human RXF393 cells"}, "[16]": {"system": "SN12C", "experiment": "Cytotoxicity against human SN12C cells"}, "[17]": {"system": "TK-10", "experiment": "Cytotoxicity against human TK10 cells"}, "[18]": {"system": "UO-31", "experiment": "Cytotoxicity against human UO31 cells"}, "[19]": {"system": "PC-3", "experiment": "Cytotoxicity against human PC3 cells"}, "[20]": {"system": "MCF7", "experiment": "Cytotoxicity against human MCF7 cells"}, "[21]": {"system": "NCI/ADR-RES", "experiment": "Cytotoxicity against human NCI/ADR-RES cells"}, "[22]": {"system": "MDA-MB-435", "experiment": "Cytotoxicity against human MDA-MB-435 cells"}, "[23]": {"system": "BT-549", "experiment": "Cytotoxicity against human BT549 cells"}, "[24]": {"system": "T47D", "experiment": "Cytotoxicity against human T47D cells"}, "[25]": {"conditions": "read-out: Log LC50 (the source's name) (converted)"}}}
{"smiles": "CC(=O)O[C@H]1C[C@H]2[C@@](C)(CC[C@H]3C(C)(C)CCC[C@@]32CO)[C@@H]2CC=C(C(C)=O)[C@H](C=O)[C@@]12C", "values": [{"measurement": "TGI", "setting": "[1]", "result": 1200, "unit": "nM"}, {"measurement": "GI50", "setting": "[2]", "result": 1290, "unit": "nM"}, {"measurement": "CC50", "setting": "[2]; [25]", "result": 5890, "unit": "nM"}, {"measurement": "TGI", "setting": "[2]; read-out: Log TGI (converted)", "result": 2750, "unit": "nM"}, {"measurement": "GI50", "setting": "[3]", "result": 1000, "unit": "nM"}, {"measurement": "CC50", "setting": "[3]; [25]", "result": 4900, "unit": "nM"}, {"measurement": "TGI", "setting": "[3]; read-out: Log TGI (converted)", "result": 2240, "unit": "nM"}, {"measurement": "GI50", "setting": "[4]", "result": 1620, "unit": "nM"}, {"measurement": "CC50", "setting": "[4]; [25]", "result": 8130, "unit": "nM"}, {"measurement": "TGI", "setting": "[4]; read-out: Log TGI (converted)", "result": 3630, "unit": "nM"}, {"measurement": "GI50", "setting": "[5]", "result": 251, "unit": "nM"}, {"measurement": "CC50", "setting": "[5]; [25]", "result": 2290, "unit": "nM"}, {"measurement": "TGI", "setting": "[5]; read-out: Log TGI (converted)", "result": 631, "unit": "nM"}, {"measurement": "GI50", "setting": "[6]", "result": 1950, "unit": "nM"}, {"measurement": "CC50", "setting": "[6]; [25]", "result": 9550, "unit": "nM"}, {"measurement": "TGI", "setting": "[6]; read-out: Log TGI (converted)", "result": 4370, "unit": "nM"}, {"measurement": "GI50", "setting": "[7]", "result": 1480, "unit": "nM"}, {"measurement": "CC50", "setting": "[7]; [25]", "result": 5370, "unit": "nM"}, {"measurement": "TGI", "setting": "[7]; read-out: Log TGI (converted)", "result": 2820, "unit": "nM"}, {"measurement": "GI50", "setting": "[8]", "result": 1580, "unit": "nM"}, {"measurement": "CC50", "setting": "[8]; [25]", "result": 7080, "unit": "nM"}, {"measurement": "TGI", "setting": "[8]; read-out: Log TGI (converted)", "result": 3310, "unit": "nM"}, {"measurement": "GI50", "setting": "[9]", "result": 204, "unit": "nM"}, {"measurement": "CC50", "setting": "[9]; [25]", "result": 676, "unit": "nM"}, {"measurement": "TGI", "setting": "[9]; read-out: Log TGI (converted)", "result": 372, "unit": "nM"}, {"measurement": "GI50", "setting": "[10]", "result": 575, "unit": "nM"}, {"measurement": "CC50", "setting": "[10]; [25]", "result": 5010, "unit": "nM"}, {"measurement": "TGI", "setting": "[10]; read-out: Log TGI (converted)", "result": 1910, "unit": "nM"}, {"measurement": "GI50", "setting": "[11]", "result": 832, "unit": "nM"}, {"measurement": "CC50", "setting": "[11]; [25]", "result": 4680, "unit": "nM"}, {"measurement": "TGI", "setting": "[11]; read-out: Log TGI (converted)", "result": 2090, "unit": "nM"}, {"measurement": "GI50", "setting": "[12]", "result": 263, "unit": "nM"}, {"measurement": "TGI", "setting": "[12]; read-out: Log TGI (converted)", "result": 692, "unit": "nM"}, {"measurement": "GI50", "setting": "[13]", "result": 224, "unit": "nM"}, {"measurement": "CC50", "setting": "[13]; [25]", "result": 1170, "unit": "nM"}, {"measurement": "TGI", "setting": "[13]; read-out: Log TGI (converted)", "result": 490, "unit": "nM"}, {"measurement": "GI50", "setting": "[14]", "result": 282, "unit": "nM"}, {"measurement": "LC50", "setting": "[14]", "result": 3240, "unit": "nM"}, {"measurement": "TGI", "setting": "[14]; read-out: Log TGI (converted)", "result": 1070, "unit": "nM"}, {"measurement": "GI50", "setting": "[15]", "result": 295, "unit": "nM"}, {"measurement": "LC50", "setting": "[15]", "result": 3630, "unit": "nM"}, {"measurement": "TGI", "setting": "[15]; read-out: Log TGI (converted)", "result": 1120, "unit": "nM"}, {"measurement": "GI50", "setting": "[16]", "result": 1200, "unit": "nM"}, {"measurement": "LC50", "setting": "[16]", "result": 5010, "unit": "nM"}, {"measurement": "TGI", "setting": "[16]; read-out: Log TGI (converted)", "result": 2450, "unit": "nM"}, {"measurement": "GI50", "setting": "[17]", "result": 302, "unit": "nM"}, {"measurement": "LC50", "setting": "[17]", "result": 3390, "unit": "nM"}, {"measurement": "TGI", "setting": "[17]; read-out: Log TGI (converted)", "result": 891, "unit": "nM"}, {"measurement": "GI50", "setting": "[18]", "result": 417, "unit": "nM"}, {"measurement": "LC50", "setting": "[18]", "result": 3980, "unit": "nM"}, {"measurement": "TGI", "setting": "[18]; read-out: Log TGI (converted)", "result": 1450, "unit": "nM"}, {"measurement": "GI50", "setting": "[19]", "result": 380, "unit": "nM"}, {"measurement": "LC50", "setting": "[19]", "result": 3800, "unit": "nM"}, {"measurement": "TGI", "setting": "[19]; read-out: Log TGI (converted)", "result": 1350, "unit": "nM"}, {"measurement": "GI50", "setting": "[20]", "result": 776, "unit": "nM"}, {"measurement": "LC50", "setting": "[20]", "result": 25700, "unit": "nM"}, {"measurement": "TGI", "setting": "[20]; read-out: Log TGI (converted)", "result": 3470, "unit": "nM"}, {"measurement": "GI50", "setting": "[21]", "result": 1070, "unit": "nM"}, {"measurement": "LC50", "setting": "[21]", "result": 6170, "unit": "nM"}, {"measurement": "TGI", "setting": "[21]; read-out: Log TGI (converted)", "result": 2570, "unit": "nM"}, {"measurement": "GI50", "setting": "[22]", "result": 525, "unit": "nM"}, {"measurement": "LC50", "setting": "[22]", "result": 4270, "unit": "nM"}, {"measurement": "TGI", "setting": "[22]; read-out: Log TGI (converted)", "result": 1740, "unit": "nM"}, {"measurement": "GI50", "setting": "[23]", "result": 214, "unit": "nM"}, {"measurement": "LC50", "setting": "[23]", "result": 977, "unit": "nM"}, {"measurement": "TGI", "setting": "[23]; read-out: Log TGI (converted)", "result": 457, "unit": "nM"}, {"measurement": "GI50", "setting": "[24]", "result": 1020, "unit": "nM"}, {"measurement": "LC50", "setting": "[24]", "result": 8910, "unit": "nM"}, {"measurement": "TGI", "setting": "[24]; read-out: Log TGI (converted)", "result": 3020, "unit": "nM"}]}
